# Values of other authors in patent US6825040B2, “Method of using a vapor acid test kit” (Mainstream Engineering Corporation, priority 1995, dated 2004).
# Read-outs that look alike come from different tables or passages of the source.
# Experiments:
# [1] = negative log of the dissociation equilibrium constant of the indicator
# [2] = pH range of the indicator colour change
Structure (SMILES),pKa [1],pH Range [2],pH Range ([2]; listed as Thymol blue)
"Cc1c(C2(c3cc(Br)c(O)c(Br)c3C)OS(=O)(=O)c3ccccc32)cc(Br)c(O)c1Br [Bromocresol green, Tetrabromo-m-cresolsulfonephthalein]",4.58,4.0 to 6.8,
"O=S1(=O)OC(c2ccc(O)c(Br)c2)(c2ccc(O)c(Br)c2)c2ccccc21 [Bromophenol red, Dibromophenolsulfonephthalein]",,5.2 to 6.8,
"O=S1(=O)OC(c2ccc(O)c(Cl)c2)(c2ccc(O)c(Cl)c2)c2ccccc21 [Chlorophenol red, Dichlorophenolsulfonephthalein]",6.0,5.4 to 6.8,
"CN(C)c1ccc(N=Nc2ccc(S(=O)(=O)[O-])cc2)cc1.[Na+] [Methyl orange, Dimethylaminoazobenzene sodium sulfonate]",3.40,3.1 to 4.4,
"CN(C)c1ccc(/N=N/c2ccccc2C(=O)O)cc1 [Methyl red, o-Carboxybenzeneazodimethylaniline]",4.95,4.4 to 6.2,
"O=S(=O)([O-])c1ccc(N=Nc2ccc(Nc3ccccc3)cc2)cc1.[Na+] [Tropeolin 00, Diphenylamino-p-benzene sodium sulfonate]",,1.3 to 3.2,
"O=S(=O)([O-])c1ccc(N=Nc2ccc(O)cc2O)cc1.[Na+] [Tropeolin 0, p-Sulfobenzeneazoresorcinol]",,11.0 to 13.0,

# The next lines start with the values.
pKa [1],pH Range [2],pH Range ([2]; listed as Thymol blue),Structure (SMILES)
,5.2 to 6.8,,"Cc1cc(C2(c3cc(C)c(O)c(Br)c3)OS(=O)(=O)c3ccccc32)cc(Br)c1O [Bromocresol purple, Dibromo-o-cresolsulfonephthalein]"
,6.2 to 7.6,,"Cc1c(C2(c3cc(C(C)C)c(O)c(Br)c3C)OS(=O)(=O)c3ccccc32)cc(C(C)C)c(O)c1Br [Bromothymol blue, Dibromothymolsulfonephthalein]"
9.4,8.0 to 10.0,,O=C1OC(c2ccc(O)cc2)(c2ccc(O)cc2)c2ccccc21 [Phenolphthalein]
,1.2 to 2.8,8.0 to 9.6,"Cc1cc(O)c(C(C)C)cc1C1(c2cc(C(C)C)c(O)cc2C)OS(=O)(=O)c2ccccc21 [Thymol blue (acid range), Thymolsulfonephthalein]"
10.0,9.4 to 10.6,,Cc1cc(O)c(C(C)C)cc1C1(c2cc(C(C)C)c(O)cc2C)OC(=O)c2ccccc21 [Thymolphthalein]
